Laboratory results from patent publication US20190275012A9, “SUBSTITUTED THIAZOLO-PYRIDINE COMPOUNDS AS MALT1 INHIBITORS” (Lupin Limited, priority 2016, published 2019).
pIC50: −log10 of the molar value.

Key:
[1] = test system: NF-kB transcriptional activity in HEK-293-NF-kB-Luc cell line overexpressing MALT1; assay: NF-kB reporter assay (luciferase, MALT1 stably overexpressed); type: cell-based; conditions: Homo sapiens, 24 h, HEK-293-NF-kB-Luc cells stably overexpressing MALT1, 24 h treatment, Bright Glo luminescence; read-out: NF-kB inhibition IC50
How it was run: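 HEK-293-NF-κB-Luc cells stably overexpressing MALT1 were seeded overnight, then exposed to test compounds for 24 h. Bright Glo added 10 min at ambient temperature and luminescence read; % inhibition calculated against 0.1% DMSO controls.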

OCI-Ly-10 cells = assay: Anticancer assay (14 days), cell viability by CCK-8; type: cell-based; conditions: Homo sapiens, OCI-Ly10, 336 h, 14 days treatment, fresh treatment every 5th day, CCK-8 viability, read-out: Ly-10 (14d) inhibition IC50
Experimental: OCI-Ly-10 cells (UHN, Canada) seeded in culture media (IMDM+20% FBS) in 96-well plates were treated with various concentrations of the test compounds. Cells were treated for a period of 14 days (13-15 days depending on the confluency of cells) with fresh treatments every 5th day. After the first treatment, for all subsequent treatments, the cells were centrifuged, the spent media was removed and fresh media containing the test compound was added. Cell viability was assessed using CCK-8 kit (Dojindo Laboratories, China) as per manufacturer's instructions. Plates were read in colorimeter and absorbance was detected. (Detection at 450 nm; Background correction at 650 nm). % inhibition was calculated relative to the samples containing media with 0.1% DMSO alone as per the following formula

Compound | pIC50 (OCI-Ly-10 cells) | pIC50 [1]
COC(C)c1c(NC(=O)Nc2ccc(-c3nnco3)c(Cl)c2)cnc2sc(C)nc12 (single isomer, unassigned) [Compound 203b, (S) or (R)-1-(3-Chloro-4-(1,3,4-oxadiazol-2-yl)phenyl)-3-(7-(1-methoxyethyl)-2-methylthiazolo[5,4-b]pyridin-6-yl)urea] | 7.00 to 7.59 | 7.00 to 9.00
COC(C)c1c(NC(=O)Nc2cnc(-n3nccn3)c(C(F)F)c2)cnc2sc(C)nc12 (single isomer, unassigned) [Compound 205b, (S) or (R)-1-(5-(Difluoromethyl)-6-(2H-1,2,3-triazol-2-yl)pyridin-3-yl)-3-(7-(1-methoxyethyl)-2-methylthiazolo[5,4-b]pyridin-6-yl)urea] | 6.60 to 7.00 | 6.30 to 7.00
COC(C)c1c(NC(=O)Nc2cnc(-n3ccnn3)c(C(F)F)c2)cnc2sc(C)nc12 (single isomer, unassigned) [Compound 206b, (S) or (R)-1-(5-(Difluoromethyl)-6-(1H-1,2,3-triazol-1-yl)pyridin-3-yl)-3-(7-(1-methoxyethyl)-2-methylthiazolo[5,4-b]pyridin-6-yl)urea] | 6.60 to 7.00 | 7.00 to 9.00
CCOc1nc(-n2nccn2)c(C(F)(F)F)cc1NC(=O)Nc1cnc2sc(C)nc2c1C(C)OC (single isomer, unassigned) [Compound 221, (S) or (R)-1-(2-ethoxy-6-(2H-1,2,3-triazol-2-yl)-5-(trifluoromethyl)pyridin-3-yl)-3-(7-(1-methoxyethyl)-2-methylthiazolo[5,4-b]pyridin-6-yl)urea] | 7.00 to 7.59 | 7.00 to 9.00
COCC(OC)c1c(NC(=O)Nc2cnc(OC)c(Cl)c2)cnc2sc(C)nc12 (stereo not shown) [Compound 34a, 1-(5-chloro-6-methoxypyridin-3-yl)-3-(7-(1,2-dimethoxyethyl)-2-methylthiazolo[5,4-b]pyridin-6-yl)urea] | 6.60 to 7.00 | 6.30 to 7.00
O=C(Nc1cnc(-n2nccn2)c(Cl)c1)Nc1cnc2scnc2c1C1CC1 [Compound 35, 1-(5-Chloro-6-(2H-1,2,3-triazol-2-yl)pyridin-3-yl)-3-(7-cyclopropylthiazolo[5,4-b]pyridin-6-yl)urea] | 7.00 to 7.59 | 7.00 to 9.00
COc1ncc(NC(=O)Nc2cnc3sc(C)nc3c2N(C)CC(C)OC)cc1Cl (stereo not shown) [Compound 55a, 1-(5-Chloro-6-methoxypyridin-3-yl)-3-(7-((2-methoxypropyl)(methyl)amino)-2-methylthiazolo[5,4-b]pyridin-6-yl)urea] | 6.60 to 7.00 | 5.82 to 6.30

Continued, in another order:

pIC50 (OCI-Ly-10 cells) | Compound | pIC50 [1]
6.60 to 7.00 | Cc1nc2c(C3CCCO3)c(NC(=O)Nc3cnc(-n4nccn4)c(Cl)c3)cnc2s1 (single isomer, unassigned) [Compound 136b, 1-(5-Chloro-6-(2H-1,2,3-triazol-2-yl)pyridin-3-yl)-3-(2-methyl-7-(tetrahydrofuran-2-yl)thiazolo[5,4-b]pyridin-6-yl)urea] | 7.00 to 9.00
7.00 to 7.59 | Cc1nc2c(N(C)CC3CC3)c(NC(=O)Nc3cnc(-n4nccn4)c(Cl)c3)cnc2s1 [Compound 42, 1-(5-Chloro-6-(2H-1,2,3-triazol-2-yl)pyridin-3-yl)-3-(7-((cyclopropylmethyl)(methyl)amino)-2-methylthiazolo[5,4-b]pyridin-6-yl)urea] | 7.00 to 9.00
6.60 to 7.00 | COCCN(C)c1c(NC(=O)Nc2cnc(-n3nccn3)c(Cl)c2)cnc2sc(C)nc12 [Compound 44, 1-(5-Chloro-6-(2H-1,2,3-triazol-2-yl)pyridin-3-yl)-3-(7-((2-methoxyethyl)(methyl)amino)-2-methylthiazolo[5,4-b]pyridin-6-yl)urea] | 6.30 to 7.00
6.60 to 7.00 | COCCN(c1c(NC(=O)Nc2cnc(-n3nccn3)c(C(F)(F)F)c2)cnc2sc(C)nc12)C1CC1 [Compound 69, 1-(6-(2H-1,2,3-Triazol-2-yl)-5-(trifluoromethyl)pyridin-3-yl)-3-(7-(cyclopropyl (2-methoxyethyl)amino)-2-methylthiazolo[5,4-b]pyridin-6-yl)urea] | 7.00 to 9.00
